Reference: patent US20050282743A1, “Molecular interactions in cells” (Arbor Vita Corporation, priority 2001, published 2005)
Ends that are not written are not given here. Peptide text beside a SMILES is read from it. * marks the point of attachment. Biotin = O=C1N[C@H]2[C@H](CS[C@H]2CCCCC(=O)*)N1

How the values were obtained:
Assay in all cases: G' assay (10 uM PL peptide), results of TABLE 7 and TABLE 12
Format in all cases: binding
[1] = molecular target: T1, PDZ protein (GST-PDZ fusion) (Homo sapiens, UniProt Q9P202); conditions: PDZ KIAA1526, PDZ Domain 1
T1 construct: made in house; host or cells: E. coli (DH5alpha, BL21 or JM109)
T1 sequence (Q9P202 1-907): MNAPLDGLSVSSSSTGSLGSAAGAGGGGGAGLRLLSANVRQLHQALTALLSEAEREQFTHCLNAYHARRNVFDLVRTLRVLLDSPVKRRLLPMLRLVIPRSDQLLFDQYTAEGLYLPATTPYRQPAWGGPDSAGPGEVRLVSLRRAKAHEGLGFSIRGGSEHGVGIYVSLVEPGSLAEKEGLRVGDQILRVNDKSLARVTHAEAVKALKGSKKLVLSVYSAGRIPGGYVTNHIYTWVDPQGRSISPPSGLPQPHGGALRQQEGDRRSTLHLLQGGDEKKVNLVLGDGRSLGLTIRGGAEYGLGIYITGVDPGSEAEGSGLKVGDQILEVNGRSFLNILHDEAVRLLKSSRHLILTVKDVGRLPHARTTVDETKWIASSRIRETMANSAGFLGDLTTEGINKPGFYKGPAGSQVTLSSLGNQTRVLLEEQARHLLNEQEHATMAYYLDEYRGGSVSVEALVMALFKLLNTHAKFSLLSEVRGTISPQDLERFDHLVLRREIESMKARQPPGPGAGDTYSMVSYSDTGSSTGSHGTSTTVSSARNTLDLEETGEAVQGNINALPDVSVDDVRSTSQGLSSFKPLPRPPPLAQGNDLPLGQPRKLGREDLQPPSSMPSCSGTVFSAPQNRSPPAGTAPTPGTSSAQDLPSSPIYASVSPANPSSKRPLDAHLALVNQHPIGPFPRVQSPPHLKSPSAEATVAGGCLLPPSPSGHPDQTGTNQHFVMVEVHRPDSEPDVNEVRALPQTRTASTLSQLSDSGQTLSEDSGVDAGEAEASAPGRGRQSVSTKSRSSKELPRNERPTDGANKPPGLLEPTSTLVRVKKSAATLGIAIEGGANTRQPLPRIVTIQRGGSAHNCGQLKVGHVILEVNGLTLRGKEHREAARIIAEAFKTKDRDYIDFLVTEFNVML
Procedure, shortened: (§1)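 Biotinylated PL peptides at 10 uM (vs 20 uM in G^0 assay) bound to GST-PDZ fusions; PDZ protein at 5 ug/ml unless another concentration listed. Bound peptide read as A450 nm, classified 0–5 (0 = A450 0; 5 = A450 >4 repeated).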

[2] = molecular target: T2, PDZ protein (GST-PDZ fusion) (Homo sapiens, UniProt Q15700)
T2 construct: made in house; host or cells: E. coli (DH5alpha, BL21 or JM109)
Procedure, shortened: as §1

[3] = molecular target: T3, PDZ protein (GST-PDZ fusion) (Homo sapiens, UniProt P78352)
T3 construct: made in house; host or cells: E. coli (DH5alpha, BL21 or JM109)
Procedure, shortened: as §1

[4] = molecular target: T4, PDZ protein (GST-PDZ fusion) (Homo sapiens, UniProt Q12959)
T4 construct: made in house; host or cells: E. coli (DH5alpha, BL21 or JM109)
Procedure, shortened: as §1

[5] = molecular target: T5, PDZ protein (GST-PDZ fusion) (Homo sapiens, UniProt O14907); conditions: PDZ TIP1, PDZ Domain 1
T5 construct: made in house; host or cells: E. coli (DH5alpha, BL21 or JM109)
T5 sequence (O14907 1-124): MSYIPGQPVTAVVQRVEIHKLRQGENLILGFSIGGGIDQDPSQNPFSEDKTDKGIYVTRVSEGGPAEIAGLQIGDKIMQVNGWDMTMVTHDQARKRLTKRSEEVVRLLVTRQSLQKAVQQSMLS
Procedure, shortened: as §1

[6] = molecular target: T6, PDZ protein (GST-PDZ fusion) (Homo sapiens, UniProt P57105); conditions: PDZ Outer Membrane, PDZ Domain 1
T6 construct: made in house; host or cells: E. coli (DH5alpha, BL21 or JM109)
T6 sequence (P57105 1-145): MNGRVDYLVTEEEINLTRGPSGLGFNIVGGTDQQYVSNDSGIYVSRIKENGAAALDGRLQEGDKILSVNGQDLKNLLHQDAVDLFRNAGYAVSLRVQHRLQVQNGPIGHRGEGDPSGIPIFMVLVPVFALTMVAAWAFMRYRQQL
Procedure, shortened: as §1

[7] = molecular target: T7, PDZ protein (GST-PDZ fusion) (Homo sapiens, UniProt Q14160)
T7 construct: made in house; host or cells: E. coli (DH5alpha, BL21 or JM109)
Procedure, shortened: as §1

[8] = molecular target: T8, PDZ protein (GST-PDZ fusion) (Homo sapiens, UniProt O15018); conditions: PDZ AIPC, PDZ Domain 1
T8 construct: made in house; host or cells: E. coli (DH5alpha, BL21 or JM109)
Procedure, shortened: as §1

T7 sequence (Q14160 whole entry, the tested form may be a part): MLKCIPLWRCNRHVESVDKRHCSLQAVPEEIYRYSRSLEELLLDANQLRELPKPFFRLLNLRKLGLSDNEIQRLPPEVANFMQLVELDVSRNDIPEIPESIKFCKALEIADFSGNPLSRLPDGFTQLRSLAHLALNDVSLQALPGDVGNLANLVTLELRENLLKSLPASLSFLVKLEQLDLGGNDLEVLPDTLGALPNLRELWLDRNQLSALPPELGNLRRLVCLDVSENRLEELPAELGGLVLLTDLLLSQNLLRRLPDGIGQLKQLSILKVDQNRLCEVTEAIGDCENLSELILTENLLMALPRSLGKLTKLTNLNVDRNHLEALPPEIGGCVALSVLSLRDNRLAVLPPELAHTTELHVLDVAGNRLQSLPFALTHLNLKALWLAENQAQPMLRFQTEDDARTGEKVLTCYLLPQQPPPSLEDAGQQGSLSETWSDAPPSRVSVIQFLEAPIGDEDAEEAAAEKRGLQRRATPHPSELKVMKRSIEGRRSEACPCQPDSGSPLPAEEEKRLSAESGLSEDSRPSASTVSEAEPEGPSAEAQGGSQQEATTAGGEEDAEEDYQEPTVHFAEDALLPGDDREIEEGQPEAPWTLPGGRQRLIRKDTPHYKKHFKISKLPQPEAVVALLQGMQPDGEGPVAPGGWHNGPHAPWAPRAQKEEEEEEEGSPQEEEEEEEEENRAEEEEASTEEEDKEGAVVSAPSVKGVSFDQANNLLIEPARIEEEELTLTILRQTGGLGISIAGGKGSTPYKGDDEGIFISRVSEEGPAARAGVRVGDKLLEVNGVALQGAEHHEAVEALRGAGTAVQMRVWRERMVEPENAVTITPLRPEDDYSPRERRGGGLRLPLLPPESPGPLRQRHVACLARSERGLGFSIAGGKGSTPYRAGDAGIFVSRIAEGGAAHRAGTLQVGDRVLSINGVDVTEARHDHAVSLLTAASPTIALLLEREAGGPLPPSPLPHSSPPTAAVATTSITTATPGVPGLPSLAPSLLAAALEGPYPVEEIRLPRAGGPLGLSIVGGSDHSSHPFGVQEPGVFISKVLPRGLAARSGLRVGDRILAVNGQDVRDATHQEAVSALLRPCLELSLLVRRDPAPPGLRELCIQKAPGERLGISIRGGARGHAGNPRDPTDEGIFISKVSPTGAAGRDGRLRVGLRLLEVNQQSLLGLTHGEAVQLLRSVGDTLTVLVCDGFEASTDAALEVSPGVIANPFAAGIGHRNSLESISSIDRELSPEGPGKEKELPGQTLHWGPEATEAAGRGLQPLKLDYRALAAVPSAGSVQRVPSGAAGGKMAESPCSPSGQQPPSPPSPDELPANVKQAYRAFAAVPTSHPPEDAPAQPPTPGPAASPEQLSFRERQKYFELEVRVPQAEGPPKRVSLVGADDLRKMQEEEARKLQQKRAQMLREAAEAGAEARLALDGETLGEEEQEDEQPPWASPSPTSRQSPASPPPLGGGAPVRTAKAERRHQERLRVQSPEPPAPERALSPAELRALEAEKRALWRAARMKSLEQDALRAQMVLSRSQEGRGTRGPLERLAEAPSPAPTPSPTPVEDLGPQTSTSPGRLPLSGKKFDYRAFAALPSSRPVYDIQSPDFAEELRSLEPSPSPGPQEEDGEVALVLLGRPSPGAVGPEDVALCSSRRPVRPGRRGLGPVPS
T4 sequence (Q12959 whole entry, the tested form may be a part): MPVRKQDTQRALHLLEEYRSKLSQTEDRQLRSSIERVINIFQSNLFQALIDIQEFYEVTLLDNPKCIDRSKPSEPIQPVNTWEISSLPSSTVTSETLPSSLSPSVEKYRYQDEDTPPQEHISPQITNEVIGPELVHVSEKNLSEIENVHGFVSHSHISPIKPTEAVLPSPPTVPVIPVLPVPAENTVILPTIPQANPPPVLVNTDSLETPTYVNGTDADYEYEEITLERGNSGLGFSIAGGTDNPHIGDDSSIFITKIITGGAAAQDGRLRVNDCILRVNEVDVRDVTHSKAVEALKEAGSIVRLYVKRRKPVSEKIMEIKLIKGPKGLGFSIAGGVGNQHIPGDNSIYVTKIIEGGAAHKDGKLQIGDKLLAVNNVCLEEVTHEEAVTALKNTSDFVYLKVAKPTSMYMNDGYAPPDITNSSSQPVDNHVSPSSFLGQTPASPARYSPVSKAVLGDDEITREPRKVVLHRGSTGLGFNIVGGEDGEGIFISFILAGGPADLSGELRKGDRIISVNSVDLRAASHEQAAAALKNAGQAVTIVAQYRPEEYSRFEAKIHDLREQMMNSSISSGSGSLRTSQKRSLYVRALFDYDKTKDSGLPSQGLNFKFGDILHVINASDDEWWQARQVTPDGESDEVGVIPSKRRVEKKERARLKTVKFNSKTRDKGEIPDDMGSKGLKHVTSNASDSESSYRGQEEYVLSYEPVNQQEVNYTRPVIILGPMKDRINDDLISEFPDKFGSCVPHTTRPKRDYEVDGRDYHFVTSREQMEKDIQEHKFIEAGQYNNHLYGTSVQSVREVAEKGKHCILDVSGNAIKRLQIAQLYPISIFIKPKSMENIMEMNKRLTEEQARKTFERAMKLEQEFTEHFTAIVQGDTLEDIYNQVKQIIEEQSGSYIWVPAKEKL
T2 sequence (Q15700 whole entry, the tested form may be a part): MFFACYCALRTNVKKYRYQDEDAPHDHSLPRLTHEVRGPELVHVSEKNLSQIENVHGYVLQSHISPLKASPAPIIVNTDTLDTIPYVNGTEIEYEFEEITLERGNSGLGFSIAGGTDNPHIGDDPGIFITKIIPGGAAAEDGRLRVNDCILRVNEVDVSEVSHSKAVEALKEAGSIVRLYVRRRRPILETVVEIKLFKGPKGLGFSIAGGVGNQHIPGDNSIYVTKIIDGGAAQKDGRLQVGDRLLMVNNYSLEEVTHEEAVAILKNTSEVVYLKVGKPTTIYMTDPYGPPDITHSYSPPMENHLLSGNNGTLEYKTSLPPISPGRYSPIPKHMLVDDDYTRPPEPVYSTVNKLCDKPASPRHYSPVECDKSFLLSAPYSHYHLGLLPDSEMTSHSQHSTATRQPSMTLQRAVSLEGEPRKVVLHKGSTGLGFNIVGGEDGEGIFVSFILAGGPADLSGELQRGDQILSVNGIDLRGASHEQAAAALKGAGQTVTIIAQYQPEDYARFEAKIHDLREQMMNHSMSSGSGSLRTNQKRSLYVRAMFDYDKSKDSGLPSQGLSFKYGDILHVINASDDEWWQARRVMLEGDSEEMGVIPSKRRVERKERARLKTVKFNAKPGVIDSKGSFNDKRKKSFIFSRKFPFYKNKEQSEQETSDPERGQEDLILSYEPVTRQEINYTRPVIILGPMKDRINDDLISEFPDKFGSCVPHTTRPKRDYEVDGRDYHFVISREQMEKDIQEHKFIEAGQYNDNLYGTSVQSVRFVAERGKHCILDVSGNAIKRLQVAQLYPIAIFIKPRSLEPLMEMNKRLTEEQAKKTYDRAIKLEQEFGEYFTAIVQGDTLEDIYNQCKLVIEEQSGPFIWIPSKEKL
T3 sequence (P78352 whole entry, the tested form may be a part): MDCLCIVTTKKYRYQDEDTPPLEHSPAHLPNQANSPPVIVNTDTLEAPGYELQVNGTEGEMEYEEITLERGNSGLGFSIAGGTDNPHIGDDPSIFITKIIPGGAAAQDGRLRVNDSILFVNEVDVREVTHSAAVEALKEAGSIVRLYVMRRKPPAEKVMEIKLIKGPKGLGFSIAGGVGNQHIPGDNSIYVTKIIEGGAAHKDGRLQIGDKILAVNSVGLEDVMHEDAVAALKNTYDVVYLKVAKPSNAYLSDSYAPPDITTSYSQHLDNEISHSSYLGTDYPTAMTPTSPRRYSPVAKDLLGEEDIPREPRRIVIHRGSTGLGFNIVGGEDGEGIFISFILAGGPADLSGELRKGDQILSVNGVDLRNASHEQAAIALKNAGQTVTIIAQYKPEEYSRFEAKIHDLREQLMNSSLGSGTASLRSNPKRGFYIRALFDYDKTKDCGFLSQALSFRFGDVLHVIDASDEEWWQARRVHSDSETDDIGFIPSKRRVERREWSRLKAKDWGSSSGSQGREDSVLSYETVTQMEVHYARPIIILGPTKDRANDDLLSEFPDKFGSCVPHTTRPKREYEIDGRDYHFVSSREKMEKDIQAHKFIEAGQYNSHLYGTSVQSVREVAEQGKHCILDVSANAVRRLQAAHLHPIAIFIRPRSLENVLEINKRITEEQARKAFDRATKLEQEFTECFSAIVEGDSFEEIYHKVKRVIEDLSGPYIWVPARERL

Compound	Classification [1]	Classification ([2]; PDZ DLG2, PDZ Domain 2)	Classification ([3]; PDZ PSD95, PDZ Domain 1)	Classification ([3]; PDZ PSD95, PDZ Domain 1, 2, 3)	Classification ([3]; PDZ PSD95, PDZ Domain 3)	Classification ([4]; PDZ DLG1, PDZ Domain 1)	Classification ([4]; PDZ DLG1, PDZ Domain 2)	Classification [5]	Classification [6]	Classification ([7]; PDZ KIAA0147, PDZ Domain 1)	Classification ([4]; PDZ DLG1, PDZ Domain 1, 2)	Classification [8]	Classification ([7]; PDZ KIAA0147, PDZ Domain 2)	Classification ([7]; PDZ KIAA0147, PDZ Domain 4)	Classification ([2]; PDZ DLG2, PDZ Domain 1)	Classification ([7]; PDZ KIAA0147, PDZ Domain 3)
CC(C)C[C@H](NC(=O)[C@H](CCCNC(=N)N)NC(=O)CNC(=O)CNC(=O)[C@H](CCCNC(=N)N)NC(=O)[C@H](C)NC(=O)[C@@H]1CCCN1C(=O)[C@H](CCCNC(=N)N)NC(=O)CNC(=O)CNC(=O)[C@@H](NC(=O)[C@H](C)NC(=O)CCCC[C@@H]1SC[C@@H]2NC(=O)N[C@@H]21)C(C)C)C(=O)N[C@@H](CCC(N)=O)C(=O)NCC(=O)N[C@@H](CCCNC(=N)N)C(=O)N[C@@H](CCCNC(=N)N)C(=O)N[C@@H](CCC(N)=O)C(=O)N[C@H](C(=O)N[C@@H](CCC(N)=O)C(=O)N[C@H](C(=O)O)C(C)C)[C@@H](C)O [HPV E6 58 (modified)] (Biotin-AVGGRPARGGRLQGRRQTQV-OH; C-terminus assumed)	1 (A450 nm 0-1)	5 (A450 nm of 4 more than 2× repeated)	5 (A450 nm of 4 more than 2× repeated)	5 (A450 nm of 4 more than 2× repeated)	5 (A450 nm of 4 more than 2× repeated)	5 (A450 nm of 4 more than 2× repeated)	5 (A450 nm of 4 more than 2× repeated)	4 (A450 nm 3-4)	5 (A450 nm of 4 more than 2× repeated)	2 (A450 nm 1-2)	–	–	–	–	–	–
PYSELNYETSHYPASPDSWV (Biotin-PYSELNYETSHYPASPDSWV) [catenin - delta 2]	2 (A450 nm 1-2)	1 (A450 nm 0-1)	1 (A450 nm 0-1)	2 (A450 nm 1-2)	–	1 (A450 nm 0-1)	2 (A450 nm 1-2)	3 (A450 nm 2-3)	5 (A450 nm of 4 more than 2× repeated)	–	3 (A450 nm 2-3)	2 (A450 nm 1-2)	3 (A450 nm 2-3)	1 (A450 nm 0-1)	–	–
CC(C)C[C@H](NC(=O)[C@H](C)NC(=O)[C@@H](NC(=O)[C@H](CCC(=O)O)NC(=O)[C@H](CCCNC(=N)N)NC(=O)[C@H](CCCNC(=N)N)NC(=O)CNC(=O)[C@H](CCC(N)=O)NC(=O)[C@H](CC(C)C)NC(=O)[C@H](CCCNC(=N)N)NC(=O)CNC(=O)CNC(=O)[C@H](CCCNC(=N)N)NC(=O)[C@H](C)NC(=O)[C@H](CO)NC(=O)[C@H](CCCNC(=N)N)NC(=O)CNC(=O)CNC(=O)[C@H](C)NC(=O)[C@H](C)NC(=O)CCCC[C@@H]1SC[C@@H]2NC(=O)N[C@@H]21)[C@@H](C)O)C(=O)O [HPV E6 33 (modified)] (Biotin-AAGGRSARGGRLQGRRETAL-OH; C-terminus assumed)	1 (A450 nm 0-1)	3 (A450 nm 2-3)	2 (A450 nm 1-2)	5 (A450 nm of 4 more than 2× repeated)	5 (A450 nm of 4 more than 2× repeated)	3 (A450 nm 2-3)	5 (A450 nm of 4 more than 2× repeated)	5 (A450 nm of 4 more than 2× repeated)	5 (A450 nm of 4 more than 2× repeated)	5 (A450 nm of 4 more than 2× repeated)	–	1 (A450 nm 0-1)	–	–	1 (A450 nm 0-1)	2 (A450 nm 1-2)
CC(C)C[C@H](NC(=O)[C@H](C)NC(=O)[C@H](CO)NC(=O)CNC(=O)[C@@H](NC(=O)CCCC[C@@H]1SC[C@@H]2NC(=O)N[C@@H]21)[C@@H](C)O)C(=O)N[C@@H](CCC(N)=O)C(=O)N[C@@H](C)C(=O)N[C@@H](Cc1c[nH]c2ccccc12)C(=O)N[C@@H](CCCNC(=N)N)C(=O)N[C@@H](Cc1c[nH]cn1)C(=O)N[C@H](C(=O)N[C@@H](CO)C(=O)N[C@@H](CCCNC(=N)N)C(=O)N[C@@H](CCC(N)=O)C(=O)N[C@@H](C)C(=O)N[C@H](C(=O)N[C@@H](CCC(=O)O)C(=O)N[C@@H](CO)C(=O)N[C@H](C(=O)N[C@H](C(=O)O)C(C)C)[C@@H](C)O)[C@@H](C)O)[C@@H](C)O [HPV E6 #66 (modified)] (Biotin-TGSALQAWRHTSRQATESTV-OH; C-terminus assumed)	1 (A450 nm 0-1)	5 (A450 nm of 4 more than 2× repeated)	4 (A450 nm 3-4)	5 (A450 nm of 4 more than 2× repeated)	1 (A450 nm 0-1)	4 (A450 nm 3-4)	5 (A450 nm of 4 more than 2× repeated)	5 (A450 nm of 4 more than 2× repeated)	5 (A450 nm of 4 more than 2× repeated)	2 (A450 nm 1-2)	5 (A450 nm of 4 more than 2× repeated)	1 (A450 nm 0-1)	–	–	1 (A450 nm 0-1)	–
TQGFPGPATWRRISSLESEV	3 (A450 nm 2-3)	5 (A450 nm of 4 more than 2× repeated)	5 (A450 nm of 4 more than 2× repeated)	5 (A450 nm of 4 more than 2× repeated)	2 (A450 nm 1-2)	5 (A450 nm of 4 more than 2× repeated)	5 (A450 nm of 4 more than 2× repeated)	5 (A450 nm of 4 more than 2× repeated)	5 (A450 nm of 4 more than 2× repeated)	5 (A450 nm of 4 more than 2× repeated)	5 (A450 nm of 4 more than 2× repeated)	3 (A450 nm 2-3)	1 (A450 nm 0-1)	–	4 (A450 nm 3-4)	1 (A450 nm 0-1)
